Reference: patent publication US20240262835A1, “PRMT5 INHIBITING COMPOUNDS AND USES THEREOF” (ANTENGENE DISCOVERY LIMITED, priority 2023, published 2024)
Like-named read-outs stand apart in the source and are kept apart here.

Key:
[1] = system: Caco-2 cell monolayer; experiment: Caco-2 cell monolayer model assay (permeability); format: in vitro ADME; settings: Caco-2, 1 μM
Procedure: (§1) Caco-2 cell model was used to assess the permeability of the compounds disclosed herein. Caco-2 cell was obtained from the CO-BIOR and the CO-BIOR Number is CBP60025. The cell generation used in the experiment was P9.
(§2) 1) […] of cell culture medium was added to each well of the Transwell reservoir, respectively. And then the PET transwell plates were incubated at 37° C., 5% CO2 for 1 hour before cell seeding.
(§3) 2) Caco-2 cells were diluted to 3.43×10^5 cells/mL with culture medium and 100 μL of cell suspension were dispensed into the filter well of the 96-well PET Transwell plate. Cells were cultivated for 14-18 days in a cell culture incubator at 37° C., 5% CO2, 95% relative humidity. Cell culture medium was replaced every other day, beginning no later than 24 hours after initial plating.
(§4) 3) Measure the electrical resistance across the monolayer by using Millicell Epithelial Volt-Ohm measuring system. Record the electrical resistance for each well. Once all wells have been measured, return the plate(s) to the incubator.
(§5) 4) TEER of each well is calculated by the equation below. The TEER value of each well should be greater than 230 ohms·cm^2.
(§6) 1) Remove the Caco-2 plate(s) from the incubator. Wash the monolayer twice with pre-warmed HBSS (10 mM HEPES, pH 7.4). Then incubate the plate(s) at 37° C. for 30 minutes.
(§7) 2) Prepare stock solutions of control compounds in DMSO at 5 mM and dilute with HBSS (10 mM HEPES, pH 7.4) to get 5 μM working solutions. Prepare stock solutions of test compounds in DMSO at 1 mM and dilute with HBSS (10 mM HEPES, pH 7.4) to get 1 μM working solutions. Digoxin is used as the reference substrate of Pgp. Atenolol is used as the low permeability marker, minoxidil is used as the high permeability marker.
(§8) 3) To determine the rate of drug transport in the apical to basolateral direction, add 100 μL of the working donor solutions (without inhibitor) to the Transwell insert (apical compartment). Fill the wells in the receiver plate (basolateral compartment) with 300 μL of transport buffer. To determine the rate of drug transport in the basolateral to apical direction, add 300 μL of the working donor solutions (without inhibitor) to the receiver plate wells (basolateral compartment). Fill the Transwell insert (apical compartment) with 100 μL of transport buffer.
(§9) 4) Transfer 50 μL samples from the working solutions to 300 μL of cold MeOH:acetonitrile=1:1 with IS (50 ng/ml Labetalol, 50 ng/ml Tolbutamide) to prepare the time 0 samples. Incubate the Transwell plate at 37° C., 5% CO2 with shaking at 60 rpm on a rotary shaker for 2 hours.
(§10) 5) At the end of the transport period, transfer 50 μL of samples from apical and basolateral wells to a new 96-well plate. Add 300 μL of quenching solution (MeOH:acetonitrile=1:1 with IS (50 ng/ml Labetalol, 50 ng/mL Tolbutamide)) into each well of the plate(s). Vortex for 10 minutes. Samples are centrifuged at 4000 rpm g for 30 minutes. An aliquot of 100 μL of the supernatant is mixed with an appropriate volume of ultra-pure water (depends on the LC-MS/MS signal response and peak shape) before LC-MS/MS analysis.
(§11) 6) To determine the Lucifer Yellow leakage after 2-hour transport period, prepare stock solutions of Lucifer yellow in DMSO and dilute with HBSS (10 mM HEPES, pH 7.4) to reach the final concentration of 100 μM. Add 100 μL of the Lucifer yellow solution to the apical compartment. Fill the basolateral compartment with 300 μL of HBSS (10 mM HEPES, pH 7.4). Incubate the plate(s) at 37° C. for 30 minutes and remove 80 μL directly from the apical and basolateral wells and transfer to new 96 wells plates. Measure Lucifer Yellow fluorescence (to monitor monolayer integrity) in a fluorescence plate reader at 485 nm excitation and 530 nm emission.
(§12) 7) Discard the remaining solution in the cell plate, Add 300 μL of quenching solution (MeOH:acetonitrile=1:1 with IS (50 ng/ml Labetalol, 50 ng/mL Tolbutamide)) into each well of the plate(s), blow up and down and mix well for 5 times. […]

[2] = target: CYP2D6 (Homo sapiens (Human), UniProt P10635); experiment: CYP isoforms inhibitory assay in human liver microsome, CYP2D6; settings: read-out: IC50 CYP2D6, substrate dextromethorphan
Procedure: (§13) CYP isoforms inhibitory activities of test compounds were measured in human liver microsome.
(§14) Preparation details of these substrates are given in below table. The substrate stock solution was stored in a −20° C. freezer. Prior to use, the substrate stock solution was removed from the freezer and allowed to rise to room temperature. Then the substrate stock solution was mixed on a whirly mixer for 30 seconds.
(§15) HLMs were stored in a −80° C. freezer. Prior to use, the pooled HLM was removed from the freezer and allowed to thaw in a 37° C. water bath and then stored on wet ice.
(§16) The positive control inhibitors and their concentrations used by each isozyme are summarized below.
(§17) All samples were incubated in a 37° C. water bath, with three parallels for each concentration of the test compound and two parallels for each concentration of the positive control inhibitor. 100 μL of microsome working solution was taken and added 2 μL of the test product or positive inhibitor working solution. 2 μL solvents was added to the solvent control, and put in a water bath to pre-incubate for 10 min. After pre-incubation, 98 μL of NADPH regeneration solution was added to all samples to start the reaction. Then the mixture was put back in the water bath and incubated for a certain period of time.
(§18) The reaction was quenched by 200 μL stop solution. […]
(§19) IC50 values were determined using 3- or 4-parameter logistic equation.

[3] = target: CYP3A4 (Homo sapiens (Human), UniProt P08684); experiment: CYP isoforms inhibitory assay in human liver microsome, CYP3A4
Procedure: as §13, §14, §15, §16, §17, §18, §19

[4] = Liver microsome metabolic stability (LMS) assay, dog
[5] = Liver microsome metabolic stability (LMS) assay, human
[6] = Caco-2 cell monolayer model assay (permeability); format: in vitro ADME; settings: human
Procedure: as §1, §2, §3, §4, §5, §6, §7, §8, §9, §10, §11, §12

[7] = in vitro; settings: rat, microsomes
[8] = in vitro; settings: dog, microsomes
[9] = in vitro; settings: cynomolgus monkey, microsomes
[10] = Hepatic metabolic stability (HMS) assay, dog hepatocytes; settings: dog, cryopreserved hepatocytes

Sequence of CYP3A4 (P08684 whole entry, canonical isoform): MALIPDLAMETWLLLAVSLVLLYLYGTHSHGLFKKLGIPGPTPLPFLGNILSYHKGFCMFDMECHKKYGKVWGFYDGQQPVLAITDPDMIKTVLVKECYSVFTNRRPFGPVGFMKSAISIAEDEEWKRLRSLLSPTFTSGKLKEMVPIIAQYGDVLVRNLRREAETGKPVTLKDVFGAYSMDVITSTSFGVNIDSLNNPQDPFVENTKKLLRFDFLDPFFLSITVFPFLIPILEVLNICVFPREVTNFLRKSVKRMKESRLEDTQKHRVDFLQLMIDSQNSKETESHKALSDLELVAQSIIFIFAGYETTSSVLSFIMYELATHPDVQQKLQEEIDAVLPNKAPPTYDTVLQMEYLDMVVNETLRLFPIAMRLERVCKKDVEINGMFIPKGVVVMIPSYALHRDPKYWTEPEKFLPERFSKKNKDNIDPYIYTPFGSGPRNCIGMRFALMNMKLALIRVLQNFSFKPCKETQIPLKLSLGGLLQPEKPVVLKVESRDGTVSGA
Sequence of CYP2D6 (P10635 whole entry, canonical isoform): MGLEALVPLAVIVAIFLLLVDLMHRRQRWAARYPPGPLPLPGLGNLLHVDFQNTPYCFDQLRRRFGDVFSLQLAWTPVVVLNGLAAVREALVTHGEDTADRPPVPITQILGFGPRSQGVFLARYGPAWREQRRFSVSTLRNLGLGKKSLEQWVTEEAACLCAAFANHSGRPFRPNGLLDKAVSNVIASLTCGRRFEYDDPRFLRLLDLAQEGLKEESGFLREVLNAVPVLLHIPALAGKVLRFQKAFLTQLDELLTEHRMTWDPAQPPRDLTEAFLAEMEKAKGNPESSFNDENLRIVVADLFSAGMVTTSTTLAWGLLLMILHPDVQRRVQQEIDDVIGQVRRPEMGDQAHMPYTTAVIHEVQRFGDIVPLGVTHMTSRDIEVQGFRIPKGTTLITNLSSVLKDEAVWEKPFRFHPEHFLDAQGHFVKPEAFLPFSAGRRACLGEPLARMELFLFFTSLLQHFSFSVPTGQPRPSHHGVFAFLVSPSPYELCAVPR

CN(C(=O)c1ccc2nc(N)c3cncn3c2c1)C1COc2cc(C(F)(F)F)ccc21 (stereo not drawn) [Compound 17]
Recovery AP − BL [1]: 81.0%
Recovery BL − AP [1]: 85.6%
Papp (A−B) ([1]; 2 hours, pH 7.4): 6.70 10^−6 cm/s
Papp (B−A) ([1]; 2 hours, pH 7.4): 11.8 10^−6 cm/s
Efflux Ratio ([1]; Papp (B-A)/Papp (A-B)): 1.76
IC50 [2]: > 30 µM
IC50 ([3]; microsomes): 27.3 µM
IC50 ([3]; read-out: IC50 CYP3A4 (midazolam), human liver microsome, substrate midazolam): > 30 µM

CN(C(=O)c1cc2c(cn1)nc(N)c1cncn12)C1CC(F)(F)c2cc(C(F)(F)F)ccc21 (stereo not drawn) [Compound 24]
CLint (mic) D ([4]; dog liver microsome): <9.6 µL/min/mg
T1/2 of LMS, D ([4]; dog liver microsome 0.5 mg protein/mL, 1 μM, NADPH): >145 min
CLint (liver) D ([4]; dog liver microsome, scaled to liver): <13.8 mL/min/kg
CLint (mic) H ([5]; human liver microsome): <9.6 µL/min/mg
T1/2 of LMS, H ([5]; human liver microsome 0.5 mg protein/mL, 1 μM, NADPH): >145 min
CLint (liver) H ([5]; human liver microsome, scaled to liver): <8.6 mL/min/kg

CN(C(=O)c1ccc2nc(N)c3cncn3c2c1)[C@@H]1COc2cc(C(F)(F)F)ccc21 [Compound 12]
efflux ratio at 2 h, 1 μM ([6]; Caco-2, pH 7.4): 1.98
Papp A→B at 2 h, 1 μM ([6]; Caco-2, 1 μM, 2 hours, pH 7.4): 6.07 ×10⁻⁶ cm/s
Papp B→A at 2 h, 1 μM ([6]; Caco-2, 1 μM, 2 hours, pH 7.4): 12 ×10⁻⁶ cm/s
half-life at 1 μM [7]: > 145 min
half-life at 1 μM [8]: > 145 min
half-life at 1 μM [9]: 56.1 min
half-life at 1 μM [10]: 127 min
